# Laboratory results: publication PMC10850145, “Hormonal steroids induce multidrug resistance and stress response genes in Neisseria gonorrhoeae by binding to MtrR” (Nature Communications, 2024)
# Several values for one entry are separate records, joined by “and”; a condition that tells them apart may be missing. Identical values can stand only once. Entries after “also recorded” stand apart in the source; their conditions may differ.
# Key:
# [1] = target: T1, MtrR (Neisseria gonorrhoeae, UniProt P39897); test: Isothermal titration calorimetry, ligand binding to MtrR WT; details: ITC
# T1 construct: Hexa-histidine tag with TEV protease cleavage site (N, cleaved yes); made in house; host or cells: E. coli Rosetta Gami B(DE3) pLysS
# T1 sequence (P39897 whole entry): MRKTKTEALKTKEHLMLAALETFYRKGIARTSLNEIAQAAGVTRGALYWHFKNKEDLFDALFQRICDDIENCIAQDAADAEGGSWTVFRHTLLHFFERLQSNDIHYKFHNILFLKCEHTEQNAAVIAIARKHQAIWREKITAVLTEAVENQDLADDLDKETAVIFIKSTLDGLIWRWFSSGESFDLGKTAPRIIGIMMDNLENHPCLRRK
# [2] = system: ngo1249-lacZ expression; test: β-galactosidase assay, ngo1249-lacZ fusion (negative control gene); details: WT-NGO1249-lacZ, 100 µM hormone
# [3] = target: T1, MtrR; design: method as in PMID 31331979; details: cited from earlier work
# [4] = target: T2, MtrR binding to mtrCDE operator (21mer) (Neisseria gonorrhoeae, UniProt P39897); test: Plate-based fluorescence polarization DNA-binding assay, mtrCDE operator; details: mtrCDE 21mer + 125µM
# T2 construct: Hexa-histidine tag with TEV protease cleavage site (N, cleaved yes); made in house; host or cells: E. coli Rosetta Gami B(DE3) pLysS
# T2 sequence (P39897 whole entry): as above
# Procedure: (§1) To analyze the effect of ethinyl estradiol on DNA binding by MtrR, fluorescence polarization DNA-binding data were collected in 96-well plates (Costar #3915 black, flat bottom). with a SpectraMax M5e Microplate Reader (Molecular Devices) and analyzed with Prism (Graphpad Software, version 10.0.0). Purified MtrR was buffer exchanged into “DNA” binding buffer (150 mM NaCl, 20 mM Tris-HCl pH 7.5, 2.5% glycerol, 1 mM TCEP). […] The binding affinity of protein for DNA was determined using the Morrison’s quadratic equation[72]. BSA and dI-dC are included as carriers and to control for nonspecific DNA binding. Samples were excited at 485 nm and polarized emissions measured at 525 nm, with a 515 nm cutoff. Controls were run with no protein (DNA ± methanol, ethinyl estradiol) to ensure that millipolarization values were not affected by experimental conditions alone. At least three independent experimental measurements were averaged for each reported binding constant.
# (§2) Figure S2: Presence of Ethinyl Estradiol influences binding of MtrR to rpoH and mtrCDE operators. Plate based Fluorescence polarization DNA-binding isotherms reveal decreases in the binding affinity of MtrR for the rpoH and mtrCDE operators in the presence of ethinyl estradiol.
# (§3) Experiments were run on the three independent experimental measurements were averaged for each reported binding constant. Data are represented by the mean values (point) +/- SEM (error
# [5] = target: T3, MtrR binding to rpoH operator (27mer) (Neisseria gonorrhoeae, UniProt P39897); test: Plate-based fluorescence polarization DNA-binding assay, rpoH operator; details: for fluorescence polarization, plate-based MtrR titration: rpoH 27mer + 125µM
# T3 construct: Hexa-histidine tag with TEV protease cleavage site (N, cleaved yes); made in house; host or cells: E. coli Rosetta Gami B(DE3) pLysS
# T3 sequence (P39897 whole entry): as above
# Procedure: as §1, §2, §3
# [6] = target: T4, MtrR W136A (Neisseria gonorrhoeae, UniProt P39897, W136A); test: biochemical; type: binding; details: ITC
# T4 construct: Hexa-histidine tag with TEV protease cleavage site (N, cleaved yes); made in house; host or cells: E. coli Rosetta Gami B(DE3) pLysS
# T4 sequence (P39897 whole entry W136A): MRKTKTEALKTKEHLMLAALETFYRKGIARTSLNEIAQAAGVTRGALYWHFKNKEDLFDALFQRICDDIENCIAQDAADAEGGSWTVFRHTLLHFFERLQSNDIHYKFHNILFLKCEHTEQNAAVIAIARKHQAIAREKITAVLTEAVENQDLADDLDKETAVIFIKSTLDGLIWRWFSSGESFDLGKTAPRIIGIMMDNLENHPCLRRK
# [7] = target: T5, MtrR D171A (Neisseria gonorrhoeae, UniProt P39897, D171A); test: biochemical; type: binding; details: ITC
# T5 construct: Hexa-histidine tag with TEV protease cleavage site (N, cleaved yes); made in house; host or cells: E. coli Rosetta Gami B(DE3) pLysS
# T5 sequence (P39897 whole entry D171A): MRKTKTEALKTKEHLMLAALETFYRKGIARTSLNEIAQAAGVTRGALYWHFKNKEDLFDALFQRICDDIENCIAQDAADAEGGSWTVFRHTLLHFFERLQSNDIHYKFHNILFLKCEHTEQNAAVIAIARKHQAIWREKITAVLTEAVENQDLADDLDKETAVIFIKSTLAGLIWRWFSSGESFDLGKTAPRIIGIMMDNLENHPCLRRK
# [8] = system: rpoH-lacZ expression; type: cell-based, Neisseria gonorrhoeae; details: only when strain produced wild-type MtrR
# [9] = system: mtrC-lacZ expression; type: cell-based, Neisseria gonorrhoeae; details: only when strain produced wild-type MtrR
structure (smiles),measurement,setting,value
CC[C@H]1OC(=O)[C@H](C)[C@@H](O[C@H]2C[C@@](C)(OC)[C@@H](O)[C@H](C)O2)[C@H](C)[C@@H](O[C@@H]2O[C@H](C)C[C@H](N(C)C)[C@H]2O)[C@](C)(O)C[C@@H](C)CN(C)[C@H](C)[C@@H](O)[C@]1(C)O [azithromycin],binding to MtrR WT,[1],no binding; also recorded: does not bind
CC12CCC3c4ccc(O)cc4CCC3C1CCC2O (stereo not drawn) [Beta-Estradiol],Mean Miller units,[2],4.6 Miller units
C[C@H](CCC(=O)NCCS(=O)(=O)O)[C@H]1CC[C@H]2[C@@H]3CC[C@@H]4C[C@H](O)CC[C@]4(C)[C@H]3C[C@H](O)[C@]12C [taurodeoxycholate],MtrR binding and induction,[3],binds and is induced by
CC(C)CCC[C@@H](C)[C@H]1CC[C@H]2[C@@H]3CC=C4C[C@@H](O)CC[C@]4(C)[C@H]3CC[C@]12C [cholesterol],binding to MtrR WT,[1],no binding
"C#C[C@]1(O)CC[C@H]2[C@@H]3CCc4cc(O)ccc4[C@H]3CC[C@@]21C [Ethinyl Estradiol, ethinyl estradiol]","fluorescence polarization, plate-based MtrR titration",[4]; MtrR WT dimer 0 nM,0 mP
same,"fluorescence polarization, plate-based MtrR titration",[4]; MtrR WT dimer 37.5 nM,6 mP and 5 mP
same,"fluorescence polarization, plate-based MtrR titration",[4]; MtrR WT dimer 75 nM,9 mP and 8 mP and 10 mP
same,"fluorescence polarization, plate-based MtrR titration",[4]; MtrR WT dimer 100 nM,11 mP and 12 mP
same,"fluorescence polarization, plate-based MtrR titration",[4]; MtrR WT dimer 150 nM,12 mP and 15 mP and 13 mP
same,"fluorescence polarization, plate-based MtrR titration",[4]; MtrR WT dimer 200 nM,18 mP and 21 mP and 16 mP
same,"fluorescence polarization, plate-based MtrR titration",[4]; MtrR WT dimer 300 nM,28 mP and 21 mP
same,"fluorescence polarization, plate-based MtrR titration",[4]; MtrR WT dimer 400 nM,26 mP and 30 mP and 27 mP
same,"fluorescence polarization, plate-based MtrR titration",[4]; MtrR WT dimer 600 nM,31 mP and 27 mP and 29 mP
same,"fluorescence polarization, plate-based MtrR titration",[4]; MtrR WT dimer 800 nM,33 mP and 36 mP and 34 mP
same,change in binding affinity of MtrR for rpoH operator,"[5]; presence of ethinyl estradiol, 125 µM",decreases in
same,"fluorescence polarization, plate-based MtrR titration",[5]; MtrR WT dimer 0 nM,0 mP
same,"fluorescence polarization, plate-based MtrR titration",[5]; MtrR WT dimer 9.4 nM,5 mP and 3 mP and 4 mP
same,"fluorescence polarization, plate-based MtrR titration",[5]; MtrR WT dimer 25 nM,10 mP and 5 mP
same,"fluorescence polarization, plate-based MtrR titration",[5]; MtrR WT dimer 37.5 nM,12 mP and 10 mP and 16 mP
same,"fluorescence polarization, plate-based MtrR titration",[5]; MtrR WT dimer 50 nM,21 mP and 17 mP and 16 mP
same,"fluorescence polarization, plate-based MtrR titration",[5]; MtrR WT dimer 75 nM,25 mP and 18 mP and 24 mP
same,"fluorescence polarization, plate-based MtrR titration",[5]; MtrR WT dimer 100 nM,29 mP and 24 mP
same,"fluorescence polarization, plate-based MtrR titration",[5]; MtrR WT dimer 150 nM,36 mP and 29 mP and 33 mP
same,"fluorescence polarization, plate-based MtrR titration",[5]; MtrR WT dimer 200 nM,40 mP and 31 mP and 33 mP
same,"fluorescence polarization, plate-based MtrR titration",[5]; MtrR WT dimer 300 nM,44 mP and 39 mP and 40 mP
same,"fluorescence polarization, plate-based MtrR titration",[5]; MtrR WT dimer 400 nM,48 mP and 37 mP and 40 mP
same,"fluorescence polarization, plate-based MtrR titration",[5]; MtrR WT dimer 600 nM,50 mP and 42 mP and 51 mP
same,"fluorescence polarization, plate-based MtrR titration",[5]; MtrR WT dimer 800 nM,50 mP and 44 mP and 53 mP
same,binding to MtrR W136A compared with wild type,[6],tolerates binding
same,binding stoichiometry N (ligand per MtrR),[1],~ 1
same,Kd,"[1]; 25 °C, 1% MeOH, read-out: equilibrium dissociation constant (Kd), MtrR WT",940 nM and ~940 nM
same,binding to MtrR D171A,[7],no observable binding
same,induction of rpoH expression,[8],could induce expression
same,induction of mtrC expression,[9],could induce expression
C[C@]12CCC(=O)C=C1CC[C@@H]1[C@@H]2[C@@H](O)C[C@@]2(C)[C@H]1CC[C@]2(O)C(=O)CO [cortisol],binding to MtrR WT,[1],no binding
C[C@H](CCC(=O)O)[C@H]1CC[C@H]2[C@@H]3[C@H](O)C[C@@H]4C[C@H](O)CC[C@]4(C)[C@H]3CC[C@]12C [chenodeoxycholate],MtrR binding and induction,[3],binds and is induced by
